The source of these data is patent US10450318B2, “CXCR4 receptor antagonists” (BRISTOL-MYERS SQUIBB COMPANY, priority 2015, dated 2019).

The assay deals with T1, CXCR4 receptors (Homo sapiens, UniProt P61073).
T1 construct: expressing endogenous CXCR4 receptors; endogenous in cells; host or cells: CCRF-CEM (human T lymphoblast cells)
T1 sequence (P61073 whole entry): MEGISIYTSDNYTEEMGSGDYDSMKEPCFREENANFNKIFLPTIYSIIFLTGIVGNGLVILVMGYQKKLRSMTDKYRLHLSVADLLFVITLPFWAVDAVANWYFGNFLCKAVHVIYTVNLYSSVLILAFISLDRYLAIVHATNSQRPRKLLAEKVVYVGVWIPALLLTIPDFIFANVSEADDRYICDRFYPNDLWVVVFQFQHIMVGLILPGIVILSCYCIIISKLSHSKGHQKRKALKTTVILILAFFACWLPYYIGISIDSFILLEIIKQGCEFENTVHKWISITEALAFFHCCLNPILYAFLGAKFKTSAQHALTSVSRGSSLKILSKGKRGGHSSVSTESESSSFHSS
As to the kind of experiment: CXCR4-CEM calcium flux assay, antagonist mode (inhibition of SDF-1α-induced calcium flux). Format: cell-based. Particulars: inhibition of calcium flux induced by 4 nM SDF-1α in CCRF-CEM cells. An outline of the steps:
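CCRF-CEM cells were preincubated with compound (0.5% DMSO) for 25 min at room temperature, then stimulated with 4 nM SDF-1α. The resulting calcium flux was recorded by FDSS for 90 sec. Percent inhibition was calculated against an internal control compound, and background-corrected EC50 values were derived.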
On the technique in general: Calcium flux is commonly read through the fluorescence of an indicator in the cells.
For `CN(Cc1cn2c(N3CCN4C[C@@H](F)C[C@H]4C3)nccc2n1)[C@H]1CCCc2cccnc21` [Example 87, (S)-N-((5-((7S,8aS)-7-fluorohexahydropyrrolo[1,2-a]pyrazin-2(1H)-yl)imidazo[1,2-c]pyrimidin-2-yl)methyl)-N-methyl-5,6,7,8-tetrahydroquinolin-8-amine], the IC50 came out at 0.2 µM.

For the molecule `CN(Cc1cn2c(N3CC4CNC4C3)nccc2n1)[C@H]1CCCc2cccnc21` (stereo partly drawn) [Example 88, (8S)-N-((5-(3,6-diazabicyclo[3.2.0]heptan-3-yl)imidazo[1,2-c]pyrimidin-2-yl)methyl)-N-methyl-5,6,7,8-tetrahydroquinolin-8-amine], the IC50 stood at 0.22 µM.

Regarding `CN(Cc1cn2c(N3CC4CNC4C3)nccc2n1)[C@H]1CCCc2cccnc21` (stereo partly drawn) [Example 89, (8S)-N-((5-(3,6-diazabicyclo[3.2.0]heptan-3-yl)imidazo[1,2-c]pyrimidin-2-yl)methyl)-N-methyl-5,6,7,8-tetrahydroquinolin-8-amine], the half-maximal inhibitory concentration (IC50) stood at 0.28 µM.

Regarding `CN(Cc1cn2c(N3CCN4CCCCC4C3)nccc2n1)[C@H]1CCCc2cccnc21` (stereo partly drawn) [Example 90, (8S)-N-methyl-N-((5-(octahydro-2H-pyrido[1,2-a]pyrazin-2-yl)imidazo[1,2-c]pyrimidin-2-yl)methyl)-5,6,7,8-tetrahydroquinolin-8-amine], the IC50 was 0.0025 µM.

Regarding `CN(Cc1cn2c(N3CC4CCNC4C3)nccc2n1)[C@H]1CCCc2cccnc21` (stereo partly drawn) [Example 93, (8S)-N-((5-(hexahydropyrrolo[3,4-b]pyrrol-5(1H)-yl)imidazo[1,2-c]pyrimidin-2-yl)methyl)-N-methyl-5,6,7,8-tetrahydroquinolin-8-amine], the IC50 came to 0.027 µM.

For the molecule `CN(Cc1cn2c(N3CC4CCNC4C3)nccc2n1)[C@H]1CCCc2cccnc21` (stereo partly drawn) [Example 94, (8S)-N-((5-(hexahydropyrrolo[3,4-b]pyrrol-5(1H)-yl)imidazo[1,2-c]pyrimidin-2-yl)methyl)-N-methyl-5,6,7,8-tetrahydroquinolin-8-amine], the IC50 was found to be 0.065 µM.

In the case of `C[C@@H]1CN(c2nccc3nc(CN(C)[C@H]4CCCc5cccnc54)cn23)C[C@H](C)N1C` [Example 97, (S)—N-Methyl-N-((5-((3S,5R)-3,4,5-trimethylpiperazin-1-yl)imidazo[1,2-c]pyrimidin-2-yl)methyl)-5,6,7,8-tetrahydroquinolin-8-amine], the IC50 was 0.48 µM.

Regarding `CN1CCN(c2nccc3nc(CN(C)[C@H]4CCCc5cccnc54)cn23)C[C@@H]1CO` [Example 98, ((R)-1-methyl-4-(2-((methyl((S)-5,6,7,8-tetrahydroquinolin-8-yl)amino)methyl)imidazo[1,2-c]pyrimidin-5-yl)piperazin-2-yl)methanol], the IC50 was found to be 0.0019 µM.

Take `CN1CCN(c2nccc3nc(CN(C)[C@H]4CCCc5cccnc54)cn23)C[C@H]1CO` [Example 99, ((S)-1-methyl-4-(2-((methyl((S)-5,6,7,8-tetrahydroquinolin-8-yl)amino)methyl)imidazo[1,2-c]pyrimidin-5-yl)piperazin-2-yl)methanol]: the IC50 amounted to 0.027 µM.

In the case of `CN1CCC2CN(c3nccc4nc(CN(C)[C@H]5CCCc6cccnc65)cn34)CC21` (stereo partly drawn) [Example 100, (8S)-N-methyl-N-((5-(1-methylhexahydropyrrolo[3,4-b]pyrrol-5(1H)-yl)imidazo[1,2-c]pyrimidin-2-yl)methyl)-5,6,7,8-tetrahydroquinolin-8-amine], the 50% inhibitory concentration (IC50) worked out at 0.21 µM.

As to `CN1CCC2CN(c3nccc4nc(CN(C)[C@H]5CCCc6cccnc65)cn34)CC21` (stereo partly drawn) [Example 101, (8S)-N-methyl-N-((5-(1-methylhexahydropyrrolo[3,4-b]pyrrol-5(1H)-yl)imidazo[1,2-c]pyrimidin-2-yl)methyl)-5,6,7,8-tetrahydroquinolin-8-amine], the IC50 turned out to be 0.22 µM.

For the molecule `CN1CCCC2CN(c3nccc4nc(CN(C)[C@H]5CCCc6cccnc65)cn34)CC21` (stereo partly drawn) [Example 102, (8S)-N-methyl-N-((5-(1-methyloctahydro-6H-pyrrolo[3,4-b]pyridin-6-yl)imidazo[1,2-c]pyrimidin-2-yl)methyl)-5,6,7,8-tetrahydroquinolin-8-amine], the IC50 came to 0.21 µM.

For `CN1CCCC2CN(c3nccc4nc(CN(C)[C@H]5CCCc6cccnc65)cn34)CC21` (stereo partly drawn) [Example 103, (8S)-N-methyl-N-((5-(1-methyloctahydro-6H-pyrrolo[3,4-b]pyridin-6-yl)imidazo[1,2-c]pyrimidin-2-yl)methyl)-5,6,7,8-tetrahydroquinolin-8-amine], the IC50 turned out to be 0.26 µM.

In the case of `COc1cc2nc(CN(C)[C@H]3CCCc4cccnc43)cn2c(N2CCNCC2)n1` [Example 104, (S)—N-((7-methoxy-5-(piperazin-1-yl)imidazo[1,2-c]pyrimidin-2-yl)methyl)-N-methyl-5,6,7,8-tetrahydroquinolin-8-amine], the IC50 was 0.19 µM.

Consider `COc1cc2nc(CN(C)[C@H]3CCCc4cccnc43)cn2c(N2CCN(C)CC2)n1` [Example 105, (S)—N-((7-Methoxy-5-(4-methylpiperazin-1-yl)imidazo[1,2-c]pyrimidin-2-yl)methyl)-N-methyl-5,6,7,8-tetrahydroquinolin-8-amine], for which the IC50 amounted to 0.1 µM.

On to `COc1nc(N2CCN(C)CC2)n2cc(CN(C)[C@H]3CCCc4cccnc43)nc2c1CO` [Example 106, (S)-(7-Methoxy-2-((methyl(5,6,7,8-tetrahydroquinolin-8-yl)amino)methyl)-5-(4-methylpiperazin-1-yl)imidazo[1,2-c]pyrimidin-8-yl)methanol], for which the IC50 amounted to 0.37 µM.

On to `NCCCCN(Cc1cn2c(O)nccc2n1)[C@H]1CCCc2cccnc21` [Example 107, (S)-2-(((4-Aminobutyl)(5,6,7,8-tetrahydroquinolin-8-yl)amino)methyl)imidazo[1,2-c]pyrimidin-5-ol], for which the IC50 was 0.029 µM.

For `CN(Cc1nc2ccnc(N3CCN4CCC[C@H]4C3)n2c1CO)[C@H]1CCCc2cccnc21` [Example 108, (5-((S)-Hexahydropyrrolo[1,2-a]pyrazin-2(1H)-yl)-2-((methyl((S)-5,6,7,8-tetrahydroquinolin-8-yl)amino)methyl)imidazo[1,2-c]pyrimidin-3-yl)methanol], the IC50 worked out at 0.0021 µM.

As to “(8S)-N-((5-(3-(dimethylamino)pyrrolidin- 1-yl)imidazo[1,2-c]pyrimidin-2- yl)methyl)-N-methyl-5,6,7,8- tetrahydroquinolin-8-amine [Example 75]”, the IC50 turned out to be 0.011 µM.

As a reminder, the IC50 is the concentration that gives 50% inhibition.
